ChEMBL document CHEMBL1201862, “PubChem BioAssay data set” (2004)
Values belong to the compound of their own block, whether it stands above or below them. The source made the active and inactive calls.

Experiments:
Vero = test: Vero cell toxicity, dose response, cytotoxicity control, plate reader, cherry-pick samples (AID 687020); type: functional, cell-based; settings: Chlorocebus sabaeus
[1] = biological target: Alkaline phosphatase, placental type (Homo sapiens, UniProt P05187); test: PLAP enzyme inhibitors, confirmation, biochemical, luminescence (AID 1512); type: functional
[2] = human group III sPLA2 inhibitors, dose response, biochemical, QFRET, IC50 (AID 743457);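 also: green fluorescence rise as the enzyme cleaves BODIPY PC-A2 in liposomes; potency for inhibition of the enzyme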
Mu-type opioid receptor = Mu-type opioid receptor (Homo sapiens, UniProt P35372); type: functional, cell-based;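 also: U2OS cells with beta-arrestin recruitment to OPRM1 by beta-gal complementation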
[3] = biological target: 5-hydroxytryptamine receptor 2A (Mus musculus, UniProt P35363); type: functional, cell-based;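 also: CHO-K1 cells with tagged receptor and beta-arrestin; agonist potency measured as compound-induced activation of the receptor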
[4] = Counterscreen for […] of the human trace amine associated receptor 1 (TAAR1): Fluorescence-based cell-based high throughput dose response assay to identify nonselective Ga16 agonists.; type: functional
[5] = biological target: T1, Trace amine-associated receptor 1 (Homo sapiens, UniProt Q96RJ0); test: Fluorescence-based cell-based high throughput dose response assay to identify antagonists of the human trace amine associated receptor 1 (TAAR1).; type: functional
T1 sequence (Q96RJ0 whole entry): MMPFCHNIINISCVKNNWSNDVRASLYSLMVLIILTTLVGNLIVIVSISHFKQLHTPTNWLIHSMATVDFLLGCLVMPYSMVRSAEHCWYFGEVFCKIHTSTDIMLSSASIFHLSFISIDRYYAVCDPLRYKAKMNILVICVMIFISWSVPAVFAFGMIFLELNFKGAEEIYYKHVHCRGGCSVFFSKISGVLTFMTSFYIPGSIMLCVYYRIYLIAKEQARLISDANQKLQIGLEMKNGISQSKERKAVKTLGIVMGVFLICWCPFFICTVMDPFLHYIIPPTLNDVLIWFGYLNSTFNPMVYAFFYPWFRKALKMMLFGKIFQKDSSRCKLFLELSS

[6] = Counterscreen for antagonists of the human trace amine associated receptor 1 (hTAAR1): Fluorescence-based cell-based high throughput dose response assay to identify nonselective Ga16 antagonists.; type: functional
[7] = biological target: T1, Trace amine-associated receptor 1; test: Counterscreen for antagonists of the human trace amine associated receptor 1 (hTAAR1): Fluorescence-based cell-based high throughput dose response assay to identify TAAR1 Agonists.; type: functional
Beta-galactosidase = Beta-galactosidase (Escherichia coli, UniProt Q8VNN2); test: Dose response counterscreen for EBI2 assay utilizing the enzyme, b-galactosidase.; type: functional
[8] = biological target: Potassium channel subfamily K member 9 (Homo sapiens, UniProt Q9NPC2); test: TASK3 (KCNK9) channel inhibitors, thallium flux, SAR follow-up, selectivity assay for TASK1 inhibitor project, cell-based, FluxOR thallium flux, concentration-response (AID 652211); type: functional;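 also: potency is for inhibitors of the channel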
[9] = HepG2 cell cytotoxicity, dose response, cytotoxicity control, cherry-picks, set 5 (AID 1053118); type: functional, cell-based
Galanin receptor type 3 = Galanin receptor type 3 (Homo sapiens, UniProt O60755); test: Fluorescence-based cell-based primary high throughput dose response assay to identify antagonists of the Galanin Receptor 3 (GalR3).; type: functional
cells [10] = type: functional, cell-based; settings: HEK-CNG
cells [11] = settings: HEK293
[12] = biological target: T2, Beta-2 adrenergic receptor (Homo sapiens, UniProt P07550); test: Dose response for HTS for Beta-2AR agonists via FAP method from Powderset1.; type: functional
[13] = biological target: T2, Beta-2 adrenergic receptor; test: beta2AR agonists driving receptor internalization, dose response, cell-based, FAP fluorogen, flow cytometry, cherry pick 1 (AID 588763); type: functional

T2 sequence (P07550 whole entry): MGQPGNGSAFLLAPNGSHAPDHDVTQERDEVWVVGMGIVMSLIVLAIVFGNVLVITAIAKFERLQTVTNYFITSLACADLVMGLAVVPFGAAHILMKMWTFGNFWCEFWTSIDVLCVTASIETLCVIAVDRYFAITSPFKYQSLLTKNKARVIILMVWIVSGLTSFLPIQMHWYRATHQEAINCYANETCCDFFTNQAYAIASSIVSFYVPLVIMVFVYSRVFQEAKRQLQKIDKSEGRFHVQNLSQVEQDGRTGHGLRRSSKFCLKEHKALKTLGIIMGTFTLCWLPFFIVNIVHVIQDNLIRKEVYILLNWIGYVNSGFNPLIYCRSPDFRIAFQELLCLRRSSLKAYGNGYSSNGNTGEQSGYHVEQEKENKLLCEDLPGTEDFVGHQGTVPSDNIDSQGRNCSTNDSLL
Sequence of Potassium channel subfamily K member 9 (Q9NPC2 whole entry): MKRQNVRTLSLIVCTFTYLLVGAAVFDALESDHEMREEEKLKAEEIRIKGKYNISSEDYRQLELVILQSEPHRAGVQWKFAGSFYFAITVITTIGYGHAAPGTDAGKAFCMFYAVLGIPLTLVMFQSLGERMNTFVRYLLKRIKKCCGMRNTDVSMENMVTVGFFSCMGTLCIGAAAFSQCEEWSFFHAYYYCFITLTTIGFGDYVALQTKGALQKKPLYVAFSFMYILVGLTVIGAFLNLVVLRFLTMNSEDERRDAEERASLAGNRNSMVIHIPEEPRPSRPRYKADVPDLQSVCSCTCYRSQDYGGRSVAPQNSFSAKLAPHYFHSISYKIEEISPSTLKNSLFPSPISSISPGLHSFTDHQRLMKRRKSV
Sequence of 5-hydroxytryptamine receptor 2A (P35363 whole entry): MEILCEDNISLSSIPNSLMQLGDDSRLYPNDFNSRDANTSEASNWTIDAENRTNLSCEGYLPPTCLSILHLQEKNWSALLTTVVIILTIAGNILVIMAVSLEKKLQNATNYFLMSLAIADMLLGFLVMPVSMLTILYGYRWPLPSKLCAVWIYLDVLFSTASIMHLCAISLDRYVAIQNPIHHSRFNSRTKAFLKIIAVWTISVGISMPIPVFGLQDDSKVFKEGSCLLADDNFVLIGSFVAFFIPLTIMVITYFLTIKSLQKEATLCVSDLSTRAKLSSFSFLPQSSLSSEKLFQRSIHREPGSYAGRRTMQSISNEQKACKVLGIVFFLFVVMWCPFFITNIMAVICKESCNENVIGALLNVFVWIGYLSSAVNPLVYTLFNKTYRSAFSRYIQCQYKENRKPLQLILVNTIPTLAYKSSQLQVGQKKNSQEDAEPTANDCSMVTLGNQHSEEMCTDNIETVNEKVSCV
Sequence of Alkaline phosphatase, placental type (P05187 whole entry): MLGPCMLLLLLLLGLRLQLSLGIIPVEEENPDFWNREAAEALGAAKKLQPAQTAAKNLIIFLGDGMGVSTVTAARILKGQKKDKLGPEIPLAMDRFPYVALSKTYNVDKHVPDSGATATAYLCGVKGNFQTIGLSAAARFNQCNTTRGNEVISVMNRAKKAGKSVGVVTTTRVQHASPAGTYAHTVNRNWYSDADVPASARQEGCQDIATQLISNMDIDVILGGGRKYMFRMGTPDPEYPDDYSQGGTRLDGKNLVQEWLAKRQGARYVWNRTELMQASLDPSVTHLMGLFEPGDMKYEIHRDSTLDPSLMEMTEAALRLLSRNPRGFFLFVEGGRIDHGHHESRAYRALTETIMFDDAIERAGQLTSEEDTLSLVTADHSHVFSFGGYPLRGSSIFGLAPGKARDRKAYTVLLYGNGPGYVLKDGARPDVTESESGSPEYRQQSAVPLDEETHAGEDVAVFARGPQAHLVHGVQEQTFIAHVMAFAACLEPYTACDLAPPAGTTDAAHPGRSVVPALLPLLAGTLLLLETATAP
Sequence of Beta-galactosidase (Q8VNN2 whole entry): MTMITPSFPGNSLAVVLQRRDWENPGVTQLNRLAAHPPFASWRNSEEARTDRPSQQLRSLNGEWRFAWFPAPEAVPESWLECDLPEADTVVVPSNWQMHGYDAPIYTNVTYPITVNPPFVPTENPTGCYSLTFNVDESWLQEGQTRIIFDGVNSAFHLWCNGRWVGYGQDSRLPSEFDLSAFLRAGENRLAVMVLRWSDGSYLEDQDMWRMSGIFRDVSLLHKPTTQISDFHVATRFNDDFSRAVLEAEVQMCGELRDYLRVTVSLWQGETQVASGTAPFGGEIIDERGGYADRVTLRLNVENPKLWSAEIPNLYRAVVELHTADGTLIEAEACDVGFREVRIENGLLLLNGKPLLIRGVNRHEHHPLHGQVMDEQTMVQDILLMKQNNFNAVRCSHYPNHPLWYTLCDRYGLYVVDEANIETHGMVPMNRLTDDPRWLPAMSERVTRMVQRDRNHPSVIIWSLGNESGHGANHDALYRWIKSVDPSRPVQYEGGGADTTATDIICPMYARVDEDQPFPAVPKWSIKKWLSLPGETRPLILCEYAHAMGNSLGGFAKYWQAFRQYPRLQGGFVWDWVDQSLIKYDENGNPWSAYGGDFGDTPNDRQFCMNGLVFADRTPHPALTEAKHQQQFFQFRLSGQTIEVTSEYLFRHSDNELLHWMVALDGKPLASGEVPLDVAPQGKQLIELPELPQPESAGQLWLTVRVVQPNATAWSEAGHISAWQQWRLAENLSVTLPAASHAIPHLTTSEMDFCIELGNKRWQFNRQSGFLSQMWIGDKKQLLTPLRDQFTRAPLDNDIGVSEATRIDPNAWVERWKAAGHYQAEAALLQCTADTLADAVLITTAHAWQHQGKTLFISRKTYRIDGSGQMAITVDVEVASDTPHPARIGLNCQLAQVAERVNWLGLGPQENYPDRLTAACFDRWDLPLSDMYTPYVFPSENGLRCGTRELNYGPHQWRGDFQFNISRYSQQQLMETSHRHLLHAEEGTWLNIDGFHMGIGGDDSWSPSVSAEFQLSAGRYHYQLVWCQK
Sequence of Mu-type opioid receptor (P35372 whole entry): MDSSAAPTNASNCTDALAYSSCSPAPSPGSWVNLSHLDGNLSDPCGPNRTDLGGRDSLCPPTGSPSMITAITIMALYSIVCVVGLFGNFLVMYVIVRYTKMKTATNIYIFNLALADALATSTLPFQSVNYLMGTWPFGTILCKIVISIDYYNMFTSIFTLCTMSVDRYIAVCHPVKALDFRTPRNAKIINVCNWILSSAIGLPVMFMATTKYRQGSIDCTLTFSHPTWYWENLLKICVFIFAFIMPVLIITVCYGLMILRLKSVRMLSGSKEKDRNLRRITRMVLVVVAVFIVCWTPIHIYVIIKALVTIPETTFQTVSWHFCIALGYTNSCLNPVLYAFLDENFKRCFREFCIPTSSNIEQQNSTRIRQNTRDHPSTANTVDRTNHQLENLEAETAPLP
Sequence of Galanin receptor type 3 (O60755 whole entry): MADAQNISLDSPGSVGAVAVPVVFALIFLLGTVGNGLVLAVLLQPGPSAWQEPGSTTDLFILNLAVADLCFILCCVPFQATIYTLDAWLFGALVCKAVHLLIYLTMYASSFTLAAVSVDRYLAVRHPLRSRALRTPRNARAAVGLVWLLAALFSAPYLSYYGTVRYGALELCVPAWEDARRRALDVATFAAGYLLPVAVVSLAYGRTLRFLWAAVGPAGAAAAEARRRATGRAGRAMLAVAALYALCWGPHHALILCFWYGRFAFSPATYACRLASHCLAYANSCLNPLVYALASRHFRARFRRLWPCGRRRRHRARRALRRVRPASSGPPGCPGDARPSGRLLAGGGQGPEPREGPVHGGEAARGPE

Structure (SMILES): Cc1cc(C)n2c(Nc3c(C)cccc3C)c(CCc3ccccc3)nc2n1
- AC50 (Vero): 33.3 µM (active)

Structure (SMILES): CCOC(=O)C1CCCN(c2c(C(=O)c3ccccc3)cnc3ccc(OC)cc23)C1 (configuration not stated)
- EC50 [4]: > 29.9 µM (inactive)
- IC50 [5]: 4.06 µM (active)
- IC50 [6]: > 29.9 µM (inactive)
- EC50 [7]: 11.6 µM (inactive)

Structure (SMILES): S=C(NCC1CCCO1)N1CCN(c2nc(-c3ccc(Cl)cc3)cs2)CC1 (configuration not stated)
- IC50 (Beta-galactosidase): > 80 µM (inactive)

Structure (SMILES): N#C[C@H]1[C@@H](c2ccccc2C2=CCCCC2)[C@H](CO)N1S(=O)(=O)c1ccccc1
- AC50 [9]: > 47 µM (inactive)

Structure (SMILES): CNc1ccccc1C(C)(C)c1cc(-c2ccc(F)cc2)no1
- IC50 (Galanin receptor type 3): 3.74 µM (active)
- EC50 (cells [10]): > 29.9 µM (inactive)

Structure (SMILES): CC1CCN(C(=O)COc2cccc3c2CCN(Cc2ccccc2)C3=O)CC1
- AC50 (cells [11]): 28.7 µM (active)

Further lines, results first:

- IC50 [1]: > 100 µM (inactive)
- IC50 [2]: > 122 µM (inactive)
Structure (SMILES): COc1ccccc1N=C(S)NNC(=O)c1nn(C)c(C)c1Br

- EC50 (Mu-type opioid receptor): 92.5 µM (inactive)
- EC50 [3]: 76.1 µM (inactive)
Structure (SMILES): OCC1(Cc2ccc(Cl)cc2)CCN(CCCc2ccccc2)CC1

- IC50 [8]: 5.37 µM (active)
Structure (SMILES): O=C(Nc1cccc(NC(=O)c2ccccn2)c1)c1ccccc1

- EC50 [12]: 0.0199 µM (active)
- EC50 [13]: 0.0672 µM (active)
Structure (SMILES): CC(C)(C)c1ccc(OCC(=O)Nc2ccc(-c3nc4cccnc4o3)cc2)cc1
